# According to US9149038B2, “4-amino-6-(heterocyclic)picolinates and 6-amino-2-(heterocyclic)pyrimidine-4-carboxylates and their use as herbicides” (Dow AgroSciences LLC, priority 2013, dated 2015):
# Where two headings read alike, the source gives them in different places.
# Experiments:
# [1] = tested on: Key Broadleaf and Grass Weed as well as Crop Species; assay: Post-Emergent Test I: postemergent herbicidal activity, visual phytotoxicity rating 10 days after treatment (Table 5); format: in vivo; settings: 4 kg ai/ha; for Visual Growth Reduction (%) 10 Days After Application ECHCG: barnyardgrass (Echinochloa crus-galli); for pest or weed control at 4000 g/ha: post-emergence, 240 h, 10 days after application
# Method: Herbicidal evaluations were made visually on a scale of 0 to 100 where 0 represents no activity and 100 represents complete plant death. Post-Emergent Test I: Seeds of test species were obtained from commercial suppliers and planted into a 5″-round pot containing soil-less media mix (Metro-Mix 360®, Sun Gro Horticulture). Postemergence treatments were planted 8-12 days (d) prior to application and cultured in a greenhouse equipped with supplemental light sources to provide a 16 h photoperiod at 24-29° C. All pots were surface irrigated. Approximately 10 milligrams (mg) of each compound were dissolved in 1.3 mL acetone-DMSO (97:3, volume per volume (v/v)) and diluted with 4.1 mL water-isopropanol-crop oil concentrate (78:20:2, v/v/v) containing 0.02% Triton X-155. Treatments were serial diluted with the above formulation solvent to provide 1.85, 0.926, 0.462 and 0.231 milligrams per milliliter (mg/mL) of test compound delivered in 2.7 mL/pot (roughly equivalent to 4.0, 2.0, 1.0, and 0.5 kg/ha, respectively). Formulated compounds were applied using a DeVilbiss® compressed air sprayer at 2-4 pounds per square inch (psi). Following treatment, pots were returned to the greenhouse for the duration of the experiment. All pots were sub-irrigated as needed to provide optimum growing conditions. All pots were fertilized one time per week by subirrigating with Peters Peat-Lite Special® fertilizer (20-10-20). Phytotoxicity ratings were obtained 10 days after treatment postemergence applications. All evaluations were made visually on a scale of 0 to 100 where 0 represents no activity and 100 represents complete plant death and are presented as indicated in Table 4.
# [2] = tested on: Key Broadleaf Weed and Crop Species; assay: Post-Emergent Test II: postemergent herbicidal activity, visual rating after 14 d (Table 7); format: in vivo; settings: post-emergence, 336 h, 140 g ai/ha
# Summary of the method: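 Greenhouse-grown plants at the first or second true leaf stage (7-21 d, ~15 h photoperiod, 23-29° C day) were sprayed with compound in acetone/DMSO-based aqueous spray containing crop oil concentrate and Triton X-155 at 187 L/ha. Injury versus untreated plants was rated visually after 14 d on a 0-100 scale.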
# [3] = tested on: Key Grass and Sedge Weeds as well as Grass Crops; assay: Post-Emergent Test II: postemergent herbicidal activity, visual rating after 14 d (Table 8); format: in vivo; settings: post-emergence, 336 h, 140 g ai/ha
# Description: Herbicidal evaluations were made visually on a scale of 0 to 100 where 0 represents no activity and 100 represents complete plant death.
# Seeds or nutlets of the desired test plant species were planted in Sun Gro Metro-Mix® 360 planting mixture, which typically has a pH of 6.0 to 6.8 and an organic matter content of about 30 percent, in plastic pots with a surface area of 64 square centimeters (cm^2). When required to ensure good germination and healthy plants, a fungicide treatment and/or other chemical or physical treatment was applied. The plants were grown for 7-21 d in a greenhouse with an approximate 15 h photoperiod which was maintained at about 23-29° C. during the day and 22-28° C. during the night. Nutrients and water were added on a regular basis and supplemental lighting was provided with overhead metal halide 1000-Watt lamps as necessary. The plants were employed for testing when they reached the first or second true leaf stage.
# A weighed amount, determined by the highest rate to be tested, of each test compound was placed in a 25 mL glass vial and was dissolved in 4 mL of a 97:3 v/v mixture of acetone and DMSO to obtain concentrated stock solutions. […] The concentrated stock solutions obtained were diluted with 20 mL of an aqueous mixture containing acetone, water, isopropyl alcohol, DMSO, Atplus 411F crop oil concentrate, and Triton® X-155 surfactant in a 48.5:39:10:1.5:1.0:0.02 v/v ratio to obtain spray solutions containing the highest application rates. Additional application rates were obtained by serial dilution of 12 mL of the high rate solution into a solution containing 2 mL of a 97:3 v/v mixture of acetone and DMSO and 10 mL of an aqueous mixture containing acetone, water, isopropyl alcohol, DMSO, Atplus 411F crop oil concentrate, and Triton X-155 surfactant in a 48.5:39:10:1.5:1.0:0.02 v/v ratio to obtain ½×, ¼×, ⅛× and 1/16× rates of the high rate. Compound requirements are based upon a 12 mL application volume at a rate of 187 liters per hectare (L/ha). Formulated compounds were applied to the plant material with an overhead Mandel track sprayer equipped with 8002E nozzles calibrated to deliver 187 L/ha over an application area of 0.503 square meters at a spray height of 18 inches (43 cm) above the average plant canopy height. Control plants were sprayed in the same manner with the solvent blank.
# The treated plants and control plants were placed in a greenhouse as described above and watered by subirrigation to prevent wash-off of the test compounds. After 14 d, the condition of the test plants as compared with that of the untreated plants was determined visually and scored on a scale of 0 to 100 percent where 0 corresponds to no injury and 100 corresponds to complete kill and are presented as indicated in Table 4.
# [4] = giant foxtail (Setaria faberi), read-out: Visual Growth Reduction (%) 10 Days After Application SETFA
# [5] = ivyleaf morningglory (Ipomoea hederecea), read-out: Visual Growth Reduction (%) 10 Days After Application IPOHE
# [6] = sunflower (Helianthus annuus), read-out: Visual Growth Reduction (%) 10 Days After Application HELAN
# [7] = wild oats (Avena fatua), read-out: Visual Growth Reduction (%) 10 Days After Application AVEFA
# [8] = ABUTH: velvetleaf (Abutilon theophrasti), read-out: Visual Growth Reduction (%) 14 Days After Application ABUTH
# [9] = AMARE: redroot pigweed (Amaranthus retroflexus), read-out: Visual Growth Reduction (%) 14 Days After Application AMARE
# [10] = BRSNN: oilseed rape, canola (Brassica napus), read-out: Visual Growth Reduction (%) 14 Days After Application BRSNN
# [11] = CHEAL: lambsquarters (Chenopodium album), read-out: Visual Growth Reduction (%) 14 Days After Application CHEAL
# [12] = EPHHL: wild poinsettia (Euphorbia heterophylla), read-out: Visual Growth Reduction (%) 14 Days After Application EPHHL
# [13] = HELAN: sunflower (Helianthus annuus), read-out: Visual Growth Reduction (%) 14 Days After Application HELAN
# [14] = barnyardgrass (Echinochloa crus-galli), read-out: Visual Growth Reduction (%) 14 Days After Application, ECHCG
# [15] = giant foxtail (Setaria faberi), read-out: Visual Growth Reduction (%) 14 Days After Application, SETFA
# [16] = maize, corn (Zea mays), read-out: Visual Growth Reduction (%) 14 Days After Application, ZEAMX
# [17] = rice (Oryza sativa), read-out: Visual Growth Reduction (%) 14 Days After Application, ORYSA
# [18] = wheat, spring (Triticum aestivum), read-out: Visual Growth Reduction (%) 14 Days After Application, TRZAS
# [19] = yellow nutsedge (Cyperus esculentus), read-out: Visual Growth Reduction (%) 14 Days After Application, CYPES
smiles,measurement,setting,value
C=Cc1c(C(=O)OC)nc(-c2ccc3c(c2)OC(F)(F)O3)c(F)c1N [Compound 29],melting point,,112 to 114 °C
COc1cc2c(cc1-c1cc(N)c(Cl)c(C(=O)O)n1)OC(F)(F)O2 [Compound 39],melting point,,165 to 166 °C
COC(=O)c1nc(-c2cc(F)c3c(c2)OC(F)(F)O3)cc(N)c1Cl [Compound 43],melting point,,176 to 177 °C
COC(=O)c1nc(-c2cc3c(cc2F)OC(F)(F)O3)c(C)c(N)c1Cl [Compound 50],melting point,,162 to 165 °C
Cc1c(-c2cc3c(cc2F)OC(F)(F)O3)nc(C(=O)O)c(Cl)c1N [Compound 51],Visual Growth Reduction (%) 10 Days After Application ECHCG,[1],G (0-29)
same,pest or weed control at 4000 g/ha,[1]; [4],0 to 29%
same,pest or weed control at 4000 g/ha,[1]; [5],0 to 29%
same,pest or weed control at 4000 g/ha,[1]; [6],60 to 74%
same,pest or weed control at 4000 g/ha,[1]; [7],0 to 29%
COC(=O)c1nc(-c2ccc3c(c2F)OC(F)(F)O3)c(C)c(N)c1Cl [Compound 53],melting point,,153.5 to 155 °C
Cc1c(-c2ccc3c(c2F)OC(F)(F)O3)nc(C(=O)O)c(Cl)c1N [Compound 54],Visual Growth Reduction (%) 10 Days After Application ECHCG,[1],G (0-29)
same,pest or weed control at 4000 g/ha,[1]; [4],0 to 29%
same,pest or weed control at 4000 g/ha,[1]; [5],0 to 29%
same,pest or weed control at 4000 g/ha,[1]; [6],60 to 74%
same,pest or weed control at 4000 g/ha,[1]; [7],0 to 29%
COC(=O)c1nc(-c2ccc3c(c2F)OC(F)(F)O3)nc(N)c1OC [Compound 65],melting point,,109 to 111 °C
Nc1cc(-c2cccc3c2OC(F)(F)O3)nc(C(=O)O)c1Cl [Compound 85],melting point,,170 °C
COC(=O)c1nc(-c2ccc3c(c2)CCN3C)c(F)c(N)c1Cl [Compound 107],pest or weed control at 140 g/ha,[2]; [8],60 to 74%
same,pest or weed control at 140 g/ha,[2]; [9],0 to 29%
same,pest or weed control at 140 g/ha,[2]; [10],0 to 29%
same,pest or weed control at 140 g/ha,[2]; [11],85 to 94%
same,pest or weed control at 140 g/ha,[2]; [12],95 to 100%
same,pest or weed control at 140 g/ha,[2]; [13],0 to 29%
same,pest or weed control at 140 g/ha,[3]; [14],0 to 29%
same,pest or weed control at 140 g/ha,[3]; [15],0 to 29%
same,pest or weed control at 140 g/ha,[3]; [16],0 to 29%
same,pest or weed control at 140 g/ha,[3]; [17],0 to 29%
same,pest or weed control at 140 g/ha,[3]; [18],0 to 29%
same,pest or weed control at 140 g/ha,[3]; [19],0 to 29%
CN1CCc2cc(-c3nc(C(=O)O)c(Cl)c(N)c3F)ccc21 [Compound 108],pest or weed control at 140 g/ha,[2]; [8],0 to 29%
same,pest or weed control at 140 g/ha,[2]; [9],0 to 29%
same,pest or weed control at 140 g/ha,[2]; [10],0 to 29%
same,pest or weed control at 140 g/ha,[2]; [11],60 to 74%
same,pest or weed control at 140 g/ha,[2]; [12],0 to 29%
same,pest or weed control at 140 g/ha,[2]; [13],60 to 74%
same,pest or weed control at 140 g/ha,[3]; [14],75 to 84%
same,pest or weed control at 140 g/ha,[3]; [15],0 to 29%
same,pest or weed control at 140 g/ha,[3]; [16],0 to 29%
same,pest or weed control at 140 g/ha,[3]; [17],0 to 29%
same,pest or weed control at 140 g/ha,[3]; [18],0 to 29%
same,pest or weed control at 140 g/ha,[3]; [19],0 to 29%
